Reference: PubChem BioAssay AID256 (DTP/NCI, 2004)
Where “and” joins values, the source holds several entries; their conditions need not be identical. Equal entries are not always repeated. Toxic doses and inconclusive results are not listed. How the source made its calls: active means survival T/C of 150% or more; inactive means T/C below 125% in these data.

System: CD2F1 mice, L1210 leukemia ip, survival T/C
Assay: NCI In Vivo Anticancer Drug Screen. Data for tumor model L1210 Leukemia (intraperitoneal) in CD2F1 (CDF1) mice
Conditions: higher = longer survival
How it was run: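 Mice carrying a transplanted tumor received test compound or vehicle alone. The value is the measurement in the treated group divided by that in the vehicle-treated control group.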

[1] = endpoint: mean survival time, dose: 12.5 mg/kg/injection, schedule: Q01DX009 (ip), vehicle: saline with Tween-80
[2] = endpoint: mean survival time, dose: 25.0 mg/kg/injection, schedule: Q01DX009 (ip), vehicle: saline with Tween-80
[3] = endpoint: mean survival time, dose: 25.0 mg/kg/injection, schedule: Q04DX003 (ip), vehicle: saline with Tween-80
[4] = endpoint: mean survival time, dose: 50.0 mg/kg/injection, schedule: Q01DX009 (ip), vehicle: saline with Tween-80
[5] = endpoint: mean survival time, dose: 50.0 mg/kg/injection, schedule: Q04DX003 (ip), vehicle: saline with Tween-80
[6] = endpoint: mean survival time, dose: 100.0 mg/kg/injection, schedule: Q04DX003 (ip), vehicle: saline with Tween-80
[7] = endpoint: mean survival time, dose: 400.0 mg/kg/injection, schedule: Q04DX003 (ip), vehicle: saline with Tween-80
[8] = endpoint: mean survival time, dose: 100.0 mg/kg/injection, schedule: Q01DX001 (ip), vehicle: saline with Tween-80
[9] = endpoint: mean survival time, dose: 200.0 mg/kg/injection, schedule: Q01DX001 (ip), vehicle: saline with Tween-80
[10] = endpoint: mean survival time, dose: 400.0 mg/kg/injection, schedule: Q01DX001 (ip), vehicle: saline with Tween-80
[11] = endpoint: mean survival time, dose: 200.0 mg/kg/injection, schedule: Q04DX003 (ip), vehicle: saline with Tween-80
[12] = endpoint: mean survival time, dose: 100.0 mg/kg/injection, schedule: Q01DX009 (ip), vehicle: saline with Tween-80
[13] = endpoint: mean survival time, dose: 200.0 mg/kg/injection, schedule: Q01DX009 (ip), vehicle: saline with Tween-80
[14] = endpoint: mean survival time, dose: 400.0 mg/kg/injection, schedule: Q01DX009 (ip), vehicle: saline with Tween-80
[15] = endpoint: mean survival time, dose: 12.5 mg/kg/injection, schedule: Q01DX009 (ip), vehicle: saline
[16] = endpoint: mean survival time, dose: 25.0 mg/kg/injection, schedule: Q01DX009 (ip), vehicle: saline
[17] = endpoint: mean survival time, dose: 100.0 mg/kg/injection, schedule: Q01DX009 (ip), vehicle: saline
[18] = endpoint: mean survival time, dose: 50.0 mg/kg/injection, schedule: Q01DX009 (ip), vehicle: saline
[19] = endpoint: mean survival time, dose: 6.25 mg/kg/injection, schedule: Q01DX009 (ip), vehicle: saline with Tween-80
[20] = endpoint: mean survival time, dose: 12.5 mg/kg/injection, schedule: Q04DX003 (ip), vehicle: saline with Tween-80
[21] = endpoint: mean survival time, dose: 100.0 mg/kg/injection, schedule: Q04DX002 (ip), vehicle: saline with Tween-80
[22] = endpoint: mean survival time, dose: 200.0 mg/kg/injection, schedule: Q04DX002 (ip), vehicle: saline with Tween-80
[23] = endpoint: mean survival time, dose: 400.0 mg/kg/injection, schedule: Q04DX002 (ip), vehicle: saline with Tween-80

Measured: T/C

O=C(CCl)N1CCC2(CC1)SSC1(CCN(C(=O)CCl)CC1)S2
inactive: [1] 94 % of control | [2] 93 % of control | [3] 89 % of control | [4] 97 % of control | [5] 100 % of control | [6] 93 % of control

CC1CCCNC1 (stereo not given)
inactive: [6] 97 % of control | [7] 93 % of control

O=c1[nH]c(=O)n(C2OC(COP(=O)(O)O)C(O)C2O)nc1SCc1ccccc1 (stereo not given)
inactive: endpoint: median survival time, dose: 5.0 mg/kg/injection, schedule: Q01DX005 (ip), vehicle: distilled water + Tween-80 109 % of control | endpoint: median survival time, dose: 10.0 mg/kg/injection, schedule: Q01DX005 (ip), vehicle: distilled water + Tween-80 98 % of control | endpoint: median survival time, dose: 20.0 mg/kg/injection, schedule: Q01DX005 (ip), vehicle: distilled water + Tween-80 96 % of control | endpoint: median survival time, dose: 40.0 mg/kg/injection, schedule: Q01DX005 (ip), vehicle: distilled water + Tween-80 105 % of control | endpoint: median survival time, dose: 80.0 mg/kg/injection, schedule: Q01DX005 (ip), vehicle: distilled water + Tween-80 117 % of control

Cc1ccccc1N=Nc1ccccc1
inactive: [8] 104 % of control | [9] 96 % of control | [10] 101 % of control

CCCCCCCNC(=O)Nc1cc([N+](=O)[O-])ccc1C
inactive: [6] 93 % of control | [11] 94 % of control | [7] 98 % of control

O=C1NC(CN2CCCCC2)C(=O)NC1CN1CCCCC1 (stereo not given)
inactive: endpoint: mean survival time, dose: 3.13 mg/kg/injection, schedule: Q01DX009 (ip), vehicle: water 98 % of control | endpoint: mean survival time, dose: 6.25 mg/kg/injection, schedule: Q01DX009 (ip), vehicle: water 98 % of control | endpoint: mean survival time, dose: 12.5 mg/kg/injection, schedule: Q01DX009 (ip), vehicle: water 105 % of control | endpoint: mean survival time, dose: 25.0 mg/kg/injection, schedule: Q01DX009 (ip), vehicle: water 103 % of control | endpoint: mean survival time, dose: 50.0 mg/kg/injection, schedule: Q01DX009 (ip), vehicle: water 98 % of control | endpoint: mean survival time, dose: 100.0 mg/kg/injection, schedule: Q01DX009 (ip), vehicle: water 105 % of control

C1=CCC(CNc2ncnc3nc[nH]c23)=CC1
inactive: [12] 100 % of control | [6] 98 % of control | [13] 100 % of control | [11] 98 % of control | [14] 88 % of control | [7] 104 % of control

O=C(Nc1ccc(F)cc1)c1cccc(C(=O)Nc2ccc(F)cc2)c1
inactive: [2] 95 % of control | [4] 94 % of control | [12] 94 % of control

OC(Cc1[nH]c2ccccc2c1C(O)(C(F)(F)F)C(F)(F)F)(C(F)(F)F)C(F)(F)F
inactive: endpoint: mean survival time, dose: 100.0 mg/kg/injection, schedule: Q01DX009 (ip), vehicle: other 101 % of control | endpoint: mean survival time, dose: 200.0 mg/kg/injection, schedule: Q01DX009 (ip), vehicle: other 110 % of control | endpoint: mean survival time, dose: 400.0 mg/kg/injection, schedule: Q01DX009 (ip), vehicle: other 94 % of control

O=C(/C(=N/N(C(=O)c1ccccc1)c1ccccc1)c1ccccc1)c1ccccc1
inactive: [6] 102 % of control | [11] 88 % of control | [7] 95 % of control

CCCOC(=O)NCCBr
inactive: [4] 101 % of control | [12] 96 % of control | [13] 93 % of control

O=C(O)CS (tested in a mixture with another compound)
inactive: [15] 102 % of control | [16] 93 % of control | [17] 93 % of control

C=CCOCC(O)CNCCCC (stereo not given)
inactive: [15] 96 % of control | [16] 107 % of control | [18] 96 % of control and 111 % of control

NC(CS/C=C\C(=O)O)C(=O)O (stereo not given)
inactive: [6] 101 % of control | [7] 93 % of control

O=C(OC(c1ccccc1)c1ccccc1)C(CSC(c1ccccc1)(c1ccccc1)c1ccccc1)NC(c1ccccc1)(c1ccccc1)c1ccccc1 (stereo not given)
inactive: [18] 96 % of control | [17] 101 % of control | endpoint: mean survival time, dose: 200.0 mg/kg/injection, schedule: Q01DX009 (ip), vehicle: saline 102 % of control | endpoint: mean survival time, dose: 400.0 mg/kg/injection, schedule: Q01DX009 (ip), vehicle: saline 98 % of control

O=C1NC(=O)c2cc(C(F)(F)F)ccc21
inactive: [19] 95 % of control | [1] 89 % of control | [20] 101 % of control | [3] 100 % of control

CCO/N=C(\C)CSC1=NCCN1
inactive: endpoint: mean survival time, dose: 75.0 mg/kg/injection, schedule: Q04DX003 (ip), vehicle: saline 102 % of control | endpoint: mean survival time, dose: 150.0 mg/kg/injection, schedule: Q04DX003 (ip), vehicle: saline 100 % of control

Cc1ccccc1C(C)NC1=NCCO1 (stereo not given)
inactive: [19] 90 % of control | endpoint: mean survival time, dose: 6.25 mg/kg/injection, schedule: Q04DX003 (ip), vehicle: saline with Tween-80 96 % of control | [1] 96 % of control | [20] 95 % of control | [2] 97 % of control | [3] 93 % of control

O=c1c(-c2ccccc2)c1-c1ccccc1
inactive: [6] 93 % of control

NC(=O)NN=C1CCC(CC2CCCCC2)CC1 (stereo not given)
inactive: [6] 112 % of control

COc1ccc(COc2ccc(Cl)cc2)cc1
inactive: endpoint: mean survival time, dose: 75.0 mg/kg/injection, schedule: Q04DX002 (ip), vehicle: saline with Tween-80 87 % of control | endpoint: mean survival time, dose: 150.0 mg/kg/injection, schedule: Q04DX002 (ip), vehicle: saline with Tween-80 98 % of control | endpoint: mean survival time, dose: 300.0 mg/kg/injection, schedule: Q04DX002 (ip), vehicle: saline with Tween-80 106 % of control

O=c1[nH]c(NCCc2ccccc2)c(Br)c(=O)[nH]1
inactive: endpoint: mean survival time, dose: 75.0 mg/kg/injection, schedule: Q01DX001 (ip), vehicle: saline with Tween-80 98 % of control | endpoint: mean survival time, dose: 150.0 mg/kg/injection, schedule: Q01DX001 (ip), vehicle: saline with Tween-80 102 % of control | endpoint: mean survival time, dose: 300.0 mg/kg/injection, schedule: Q01DX001 (ip), vehicle: saline with Tween-80 106 % of control

O=CCCOCCCl
inactive: [6] 103 % of control | [11] 95 % of control | [7] 100 % of control

CC1(C)COC(c2ccc(-c3ccc(C4=NC(C)(C)CO4)cc3)cc2)=N1
inactive: [8] 105 % of control | [9] 100 % of control | [10] 100 % of control

O=C(c1ccccc1)C1CC2CCC1CC2 (stereo not given)
inactive: endpoint: mean survival time, dose: 50.0 mg/kg/injection, schedule: Q04DX002 (ip), vehicle: saline with Tween-80 96 % of control | [21] 86 % of control | [22] 93 % of control | [23] 89 % of control

CC(=O)OC1CC2(O)C(CCC3(C)C(c4ccc(=O)oc4)CCC32O)C2(C)C1=CC(O)C1OC12 (stereo not given)
inactive: endpoint: mean survival time, dose: 0.13 mg/kg/injection, schedule: Q01DX009 (sc), vehicle: steriod suspending solution 100 % of control | endpoint: mean survival time, dose: 0.25 mg/kg/injection, schedule: Q01DX009 (sc), vehicle: steriod suspending solution 97 % of control | endpoint: mean survival time, dose: 0.5 mg/kg/injection, schedule: Q01DX009 (sc), vehicle: steriod suspending solution 100 % of control | endpoint: mean survival time, dose: 1.0 mg/kg/injection, schedule: Q01DX009 (sc), vehicle: steriod suspending solution 89 % of control

N#CSCc1ccccc1
inactive: [1] 100 % of control

CCCCCCCCCCCCCCCCCC[N+]1(C)CCSCC1
inactive: endpoint: mean survival time, dose: 12.5 mg/kg/injection, schedule: Q01DX001 (ip), vehicle: saline with Tween-80 95 % of control | endpoint: mean survival time, dose: 25.0 mg/kg/injection, schedule: Q01DX001 (ip), vehicle: saline with Tween-80 103 % of control | endpoint: mean survival time, dose: 50.0 mg/kg/injection, schedule: Q01DX001 (ip), vehicle: saline with Tween-80 104 % of control | [8] 91 % of control and 101 % of control | [9] 101 % of control and 110 % of control

COc1cc(NC(=O)CCl)ccc(=O)c1
inactive: [1] 106 % of control | [20] 99 % of control | [2] 104 % of control | [3] 91 % of control | [4] 90 % of control | [5] 94 % of control

O=c1ccc2ccccc2o1
inactive: endpoint: mean survival time, dose: 50.0 mg/kg/injection, schedule: Q01DX009 (ip), vehicle: Klucel (hydroxypropylcellulose) (HPC) 100 % of control | endpoint: mean survival time, dose: 100.0 mg/kg/injection, schedule: Q01DX009 (ip), vehicle: Klucel (hydroxypropylcellulose) (HPC) 96 % of control | endpoint: mean survival time, dose: 200.0 mg/kg/injection, schedule: Q01DX009 (ip), vehicle: Klucel (hydroxypropylcellulose) (HPC) 96 % of control

O=C(N/N=C/c1cccc([N+](=O)[O-])c1)c1ccc(Cl)cc1Cl
inactive: [12] 100 % of control | [13] 97 % of control | [14] 100 % of control

COc1cc(CCCCl)cc(OC)c1OC
inactive: [21] 100 % of control | [22] 100 % of control | [23] 103 % of control
